Values quoted from earlier work as cited in patent US20260174718A1, “MODULATORS OF mTORC1 ACTIVITY AND USES THEREOF” (Navitor Pharmaceuticals, Inc., priority 2022, published 2026).

Test system: mice
Conditions: ketamine 2.5 mg/kg, intraperitoneally

SMILES: CNC1(c2ccccc2Cl)CCCCC1=O (stereo not shown) [ketamine]
- effect of ketamine challenge alone in the forced swim test: ineffective
